Measurements published in US11253517B2, “Small molecule regulators of steroid receptor coactivators and methods of use thereof” (BAYLOR COLLEGE OF MEDICINE, priority 2016, dated 2022).

Key:
MCF-7 cells = assay: IC50 in MCF-7 cells, 72 hours incubation; type: cell-based
Experimental: The compounds described herein were synthesized as described in Example 1. The IC50 values were measured in MDA-MB-468, BT-474, and MCF-7 cells by incubating a series of concentrations of the corresponding compounds for 72 hours.
In Tables 1 and 2, “−” represents IC50 or EC50 values greater than 10 μM; “+” represents IC50 or EC50 values from greater than 1 μM to 10 μM; “++” represents IC50 or EC50 values from 0.1 μM to 1 μM; and “+++” represents IC50 or EC50 values less than 0.1 μM.

MDA-MB-231 tumor cells = assay: MDA-MB-231 xenograft model (luciferase imaging); type: in vivo, Nude mice; settings: 4 mg/kg 5 times per week, five-week period
Experimental: The quantitated luciferase activity is shown in the graph in FIG. 4.
SI-12 was evaluated in a MDA-MB-231 model where the MDA-MB-231 tumor cells were stably transfected with a luciferase expression vector. Nude mice had 2.5×10^5 tumor cells implanted into cleared mammary fat pads of nude mice. The progression of tumors in control and SI-12 treated animals (4 mg/kg 5 times per week) was followed by luciferase imaging of the mice over a five-week period.

[1] = test system: Panc-1-Luc pancreatic tumor; assay: Orthotopic pancreatic cancer mouse model (Panc-1-Luc); type: in vivo, SCID mice
Experimental: FIG. 3, Panels A-E show the therapeutic efficacy of SI-12 in an orthotopic pancreatic cancer mouse model. […] Data represent mean±SEM. *, P<0.05, **, P<0.01 by student t-test.
SI-12 was tested in pancreatic, lung, brain, and melanoma cancers. A representative example for pancreatic tumor treatment is described below. Panc-1 cells stably expressing firefly luciferase cells (Panc-1-Luc, 0.5×10^6 cells per mouse) were injected into the tail of pancreas of SCID mice (6-7 weeks). The mice were randomized into two groups based on luciferase imaging (n=8 per group). Eight days after tumor inoculation, the two groups were administered SI-12 (10 mg/kg, i.p. injection, once daily) or an equal volume of vehicle control five times per week. Tumor growth and systemic toxicity were monitored based on luciferase imaging and body weight weekly. The mice were sacrificed after eight weeks of treatment. […] At the end of the experiment, tumors were harvested and weighed. The average tumor weight in SI-12 treated mice was ˜30% of the vehicle treated counterparts (FIG. 3D).
To test whether SI-12 causes SRC-3 down-regulation in vivo, the SRC-3 levels in tumor tissues were measured by immunohistochemistry (IHC). Multiple tumor tissues (N>3) collected from both the control group and the SI-12 treated group were processed and immunohistochemically stained with an anti-SRC-3 antibody or an anti-Ki-67 antibody. […] Ki-67, a cell proliferation marker, was also immunochemically analyzed.

panel of 24 kinases = assay: Kinase-Glo Luminescent Kinase Assay, panel of 24 kinases; type: biochemical; settings: 1000 nM, 50 nM and 5 nM, versus DMSO vehicle control
Experimental: (§1) SI-12 was also tested for its ability to disrupt kinase activity. The effects of the compound were tested on a panel of 24 kinases using a Kinase-Glo Luminescent Kinase Assay system (Promega; Madison, Wis.). SI-12 was tested, at concentrations of 1000 nM, 50 nM, and 5 nM, for its ability to interfere with recombinant kinases in the assay system. The amount of ATP to ADP conversion in the presence of SI-12 was compared to a DMSO vehicle control. The values shown in Table 3 represent the percentage of kinase activity compared to a DMSO vehicle control.
(§2) In Table 3, “−” represents less than 20% inhibition; “+” represents from 20% to 40% inhibition; “++” represents from 40% to 60% inhibition; and “+++” represents greater than 60% inhibition.

MAPKAPK2 = molecular target: T1, MAPKAPK2 (Homo sapiens, UniProt P49137); assay: Kinase-Glo Luminescent Kinase Assay; type: biochemical
T1 construct: purchased Promega
T1 sequence (P49137 whole entry): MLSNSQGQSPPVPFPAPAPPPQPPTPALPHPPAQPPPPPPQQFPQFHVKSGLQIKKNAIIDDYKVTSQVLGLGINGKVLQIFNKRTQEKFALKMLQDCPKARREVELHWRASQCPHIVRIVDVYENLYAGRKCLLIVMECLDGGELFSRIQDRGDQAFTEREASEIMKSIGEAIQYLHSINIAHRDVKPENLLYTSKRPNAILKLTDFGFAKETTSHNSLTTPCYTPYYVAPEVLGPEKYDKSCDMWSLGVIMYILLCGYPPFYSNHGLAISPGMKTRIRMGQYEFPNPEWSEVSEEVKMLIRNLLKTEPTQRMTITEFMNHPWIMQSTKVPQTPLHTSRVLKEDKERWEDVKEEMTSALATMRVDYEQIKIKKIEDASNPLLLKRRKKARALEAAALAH
Experimental: as §1, §2

DAPK1 = molecular target: T2, DAPK1 (Homo sapiens, UniProt P53355); assay: Kinase-Glo Luminescent Kinase Assay; type: biochemical
T2 construct: purchased Promega
T2 sequence (P53355 whole entry): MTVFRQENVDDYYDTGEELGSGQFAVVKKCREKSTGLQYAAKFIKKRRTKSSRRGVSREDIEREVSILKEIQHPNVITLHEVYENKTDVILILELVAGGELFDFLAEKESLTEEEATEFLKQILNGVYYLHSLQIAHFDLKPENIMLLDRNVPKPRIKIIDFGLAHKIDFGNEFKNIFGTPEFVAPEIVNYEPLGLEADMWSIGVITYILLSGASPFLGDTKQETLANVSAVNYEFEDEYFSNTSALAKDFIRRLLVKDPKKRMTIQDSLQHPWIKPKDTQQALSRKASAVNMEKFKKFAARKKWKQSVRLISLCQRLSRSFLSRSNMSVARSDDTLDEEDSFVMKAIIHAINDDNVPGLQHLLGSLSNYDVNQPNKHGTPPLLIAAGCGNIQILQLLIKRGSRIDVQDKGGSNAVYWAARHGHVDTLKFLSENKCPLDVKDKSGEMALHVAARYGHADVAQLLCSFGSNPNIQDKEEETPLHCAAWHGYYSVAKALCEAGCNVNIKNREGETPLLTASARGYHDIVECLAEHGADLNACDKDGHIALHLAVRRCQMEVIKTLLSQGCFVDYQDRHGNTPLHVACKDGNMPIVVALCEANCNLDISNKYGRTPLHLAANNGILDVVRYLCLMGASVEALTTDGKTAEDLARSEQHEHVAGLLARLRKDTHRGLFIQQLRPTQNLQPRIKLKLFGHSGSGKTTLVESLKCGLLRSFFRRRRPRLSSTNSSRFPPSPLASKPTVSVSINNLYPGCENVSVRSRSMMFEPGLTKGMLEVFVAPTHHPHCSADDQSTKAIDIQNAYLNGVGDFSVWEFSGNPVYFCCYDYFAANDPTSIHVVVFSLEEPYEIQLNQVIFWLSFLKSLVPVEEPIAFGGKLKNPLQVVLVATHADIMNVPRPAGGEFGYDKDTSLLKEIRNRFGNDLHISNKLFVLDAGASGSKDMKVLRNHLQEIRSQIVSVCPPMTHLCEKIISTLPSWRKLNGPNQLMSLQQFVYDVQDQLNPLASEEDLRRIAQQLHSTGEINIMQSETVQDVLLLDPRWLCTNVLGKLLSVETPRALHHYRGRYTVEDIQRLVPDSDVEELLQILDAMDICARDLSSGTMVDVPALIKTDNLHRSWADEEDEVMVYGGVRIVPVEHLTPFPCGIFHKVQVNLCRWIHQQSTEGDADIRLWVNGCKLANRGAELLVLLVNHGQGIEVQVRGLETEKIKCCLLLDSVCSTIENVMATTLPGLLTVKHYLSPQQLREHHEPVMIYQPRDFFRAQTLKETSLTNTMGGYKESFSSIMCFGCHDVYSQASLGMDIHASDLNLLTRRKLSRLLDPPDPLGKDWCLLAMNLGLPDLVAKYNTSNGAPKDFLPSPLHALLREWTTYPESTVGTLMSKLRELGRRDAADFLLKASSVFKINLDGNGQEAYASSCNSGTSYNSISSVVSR
Experimental: as §1, §2

AKT1 = molecular target: T3, AKT1 (Homo sapiens, UniProt P31749); assay: Kinase-Glo Luminescent Kinase Assay; type: biochemical
T3 construct: purchased Promega
T3 sequence (P31749 whole entry): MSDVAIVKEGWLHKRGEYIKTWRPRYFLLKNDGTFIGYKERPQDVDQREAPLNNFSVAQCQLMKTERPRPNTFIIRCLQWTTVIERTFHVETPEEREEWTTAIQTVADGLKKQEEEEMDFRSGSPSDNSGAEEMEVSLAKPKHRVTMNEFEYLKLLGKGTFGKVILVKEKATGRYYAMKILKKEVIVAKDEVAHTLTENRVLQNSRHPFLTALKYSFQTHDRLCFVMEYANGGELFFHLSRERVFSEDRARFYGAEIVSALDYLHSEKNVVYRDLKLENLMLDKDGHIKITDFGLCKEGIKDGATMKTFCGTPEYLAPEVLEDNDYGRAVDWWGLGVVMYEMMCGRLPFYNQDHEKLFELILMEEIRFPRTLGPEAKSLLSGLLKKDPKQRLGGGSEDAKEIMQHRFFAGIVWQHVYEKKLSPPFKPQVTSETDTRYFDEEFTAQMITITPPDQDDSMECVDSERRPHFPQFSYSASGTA
Experimental: as §1, §2

FGFR1 = molecular target: T4, FGFR1 (Homo sapiens, UniProt P11362); assay: Kinase-Glo Luminescent Kinase Assay; type: biochemical
T4 construct: purchased Promega
T4 sequence (P11362 22-822): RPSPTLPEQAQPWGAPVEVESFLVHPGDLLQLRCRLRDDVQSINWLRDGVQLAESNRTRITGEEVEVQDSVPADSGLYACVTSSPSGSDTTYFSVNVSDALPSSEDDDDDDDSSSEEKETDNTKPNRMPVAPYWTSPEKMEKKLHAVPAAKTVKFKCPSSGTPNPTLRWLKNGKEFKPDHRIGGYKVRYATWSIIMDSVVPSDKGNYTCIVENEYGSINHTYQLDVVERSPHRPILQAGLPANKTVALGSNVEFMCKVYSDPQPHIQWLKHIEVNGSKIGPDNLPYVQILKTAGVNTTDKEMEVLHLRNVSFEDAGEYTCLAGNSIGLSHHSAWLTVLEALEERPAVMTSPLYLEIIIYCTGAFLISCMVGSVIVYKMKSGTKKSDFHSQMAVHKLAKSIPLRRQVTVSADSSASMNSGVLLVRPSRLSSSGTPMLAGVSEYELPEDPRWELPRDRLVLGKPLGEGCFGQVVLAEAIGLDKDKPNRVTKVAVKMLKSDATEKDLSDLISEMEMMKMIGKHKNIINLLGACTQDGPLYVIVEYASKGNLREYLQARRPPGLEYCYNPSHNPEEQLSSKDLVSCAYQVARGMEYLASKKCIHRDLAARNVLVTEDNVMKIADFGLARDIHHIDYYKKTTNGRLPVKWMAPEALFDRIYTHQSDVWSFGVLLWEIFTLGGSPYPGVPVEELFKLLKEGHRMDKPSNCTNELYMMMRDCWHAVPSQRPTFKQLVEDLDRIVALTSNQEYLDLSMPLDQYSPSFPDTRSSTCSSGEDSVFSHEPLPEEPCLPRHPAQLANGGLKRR
Experimental: as §1, §2

CAMK4 = molecular target: T5, CAMK4 (Homo sapiens, UniProt Q16566); assay: Kinase-Glo Luminescent Kinase Assay; type: biochemical
T5 construct: purchased Promega
T5 sequence (Q16566 whole entry): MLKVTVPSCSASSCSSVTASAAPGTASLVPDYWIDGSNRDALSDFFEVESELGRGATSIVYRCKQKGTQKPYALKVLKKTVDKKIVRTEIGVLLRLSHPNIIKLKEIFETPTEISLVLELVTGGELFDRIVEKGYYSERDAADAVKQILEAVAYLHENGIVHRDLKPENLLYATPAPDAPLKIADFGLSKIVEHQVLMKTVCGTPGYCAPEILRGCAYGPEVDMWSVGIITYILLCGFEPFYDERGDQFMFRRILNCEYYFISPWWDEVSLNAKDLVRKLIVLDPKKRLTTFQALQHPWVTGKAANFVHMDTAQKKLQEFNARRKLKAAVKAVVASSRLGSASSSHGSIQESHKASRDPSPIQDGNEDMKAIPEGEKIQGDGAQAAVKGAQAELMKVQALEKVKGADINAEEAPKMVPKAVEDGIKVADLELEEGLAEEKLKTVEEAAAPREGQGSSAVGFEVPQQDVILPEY
Experimental: as §1, §2

CK1a 1 = molecular target: T6, CK1a 1 (Homo sapiens, UniProt P48729); assay: Kinase-Glo Luminescent Kinase Assay; type: biochemical
T6 construct: purchased Promega
T6 sequence (P48729 whole entry): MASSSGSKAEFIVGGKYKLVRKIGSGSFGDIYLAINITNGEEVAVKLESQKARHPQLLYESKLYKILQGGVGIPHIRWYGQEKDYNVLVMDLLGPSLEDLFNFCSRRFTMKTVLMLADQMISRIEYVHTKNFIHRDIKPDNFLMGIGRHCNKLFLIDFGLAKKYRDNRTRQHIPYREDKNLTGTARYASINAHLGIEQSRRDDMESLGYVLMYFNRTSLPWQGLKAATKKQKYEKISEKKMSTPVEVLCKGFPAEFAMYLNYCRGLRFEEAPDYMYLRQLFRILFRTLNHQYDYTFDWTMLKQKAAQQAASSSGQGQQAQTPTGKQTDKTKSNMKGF
Experimental: as §1, §2

P38A = molecular target: T7, P38A (Homo sapiens, UniProt Q16539); assay: Kinase-Glo Luminescent Kinase Assay; type: biochemical
T7 construct: purchased Promega
T7 sequence (Q16539 2-360 limits assumed): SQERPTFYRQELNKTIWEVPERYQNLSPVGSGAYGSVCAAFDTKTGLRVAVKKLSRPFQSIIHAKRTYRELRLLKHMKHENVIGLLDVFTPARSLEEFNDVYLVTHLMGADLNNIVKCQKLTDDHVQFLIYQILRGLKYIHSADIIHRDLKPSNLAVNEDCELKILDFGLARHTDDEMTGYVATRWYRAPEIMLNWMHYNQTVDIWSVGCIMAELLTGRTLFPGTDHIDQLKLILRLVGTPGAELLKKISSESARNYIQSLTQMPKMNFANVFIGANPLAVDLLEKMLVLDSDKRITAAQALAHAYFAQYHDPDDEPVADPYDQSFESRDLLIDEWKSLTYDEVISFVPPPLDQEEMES
Experimental: as §1, §2

CK2a 1 = molecular target: T8, CK2a 1 (Homo sapiens, UniProt P68400); assay: Kinase-Glo Luminescent Kinase Assay; type: biochemical
T8 construct: purchased Promega
T8 sequence (P68400 whole entry): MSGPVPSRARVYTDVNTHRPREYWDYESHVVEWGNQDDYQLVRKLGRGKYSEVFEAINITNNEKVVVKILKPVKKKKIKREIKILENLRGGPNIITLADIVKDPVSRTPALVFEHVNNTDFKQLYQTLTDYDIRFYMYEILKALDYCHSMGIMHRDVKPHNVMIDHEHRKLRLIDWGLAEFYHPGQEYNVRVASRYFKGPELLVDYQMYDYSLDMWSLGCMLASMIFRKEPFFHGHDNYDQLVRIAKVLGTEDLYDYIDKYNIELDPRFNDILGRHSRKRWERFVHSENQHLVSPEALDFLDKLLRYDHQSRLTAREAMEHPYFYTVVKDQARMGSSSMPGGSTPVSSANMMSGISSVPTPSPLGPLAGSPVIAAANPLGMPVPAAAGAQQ
Experimental: as §1, §2

CDK2/CyclinE1 = molecular target: T9, CDK2/CyclinE1 (Homo sapiens, UniProt P24941); assay: Kinase-Glo Luminescent Kinase Assay; type: biochemical
T9 construct: purchased Promega
Experimental: as §1, §2

[2] = 10 mg/kg i.p. once daily, five times per week, eight weeks

Structure (SMILES): CC(=NNc1nc2cc(F)c(F)cc2n1C)c1ccc(F)cn1 [SI-12]
- IC50 (MCF-7 cells): < 100 nM
- luciferase expression at primary tumor and lung metastasis (whole body imaging) (MDA-MB-231 tumor cells): reduced luciferase expression at both the sites of the primary tumor and of MDA-MB-231 metastasis to the lung
- tumor growth in MDA-MB-231 xenograft model (MDA-MB-231 tumor cells): can inhibit tumor growth
- body weight loss [1, 2]: minimal body weight loss
- pancreatic tumor growth (luciferase imaging) [1, 2]: significantly delayed pancreatic tumor growth
- average tumor weight relative to vehicle treated counterparts ([1]; end of experiment, after eight weeks of treatment, 10 mg/kg i.p.): ~30%
- Ki-67 positive cells in tumor tissues (IHC) ([1]; versus control group, anti-Ki-67 antibody): dramatically fewer Ki-67 positive cells
- SRC-3 levels in tumor tissues (IHC) ([1]; versus vehicle treated control group, anti-SRC-3 antibody): significantly lower than the vehicle treated control group
- effects on kinase activity, panel overall (panel of 24 kinases): minimal effects on kinase activity
- MAPKAPK2 kinase inhibition (MAPKAPK2; 5 nM): − (less than 20% inhibition)
- MAPKAPK2 kinase inhibition (MAPKAPK2; 50 nM): − (less than 20% inhibition)
- MAPKAPK2 kinase inhibition (MAPKAPK2; 1000 nM): − (less than 20% inhibition)
- DAPK1 kinase inhibition (DAPK1; 5 nM): − (less than 20% inhibition)
- DAPK1 kinase inhibition (DAPK1; 50 nM): − (less than 20% inhibition)
- DAPK1 kinase inhibition (DAPK1; 1000 nM): − (less than 20% inhibition)
- AKT1 kinase inhibition (AKT1; 5 nM): − (less than 20% inhibition)
- AKT1 kinase inhibition (AKT1; 50 nM): − (less than 20% inhibition)
- AKT1 kinase inhibition (AKT1; 1000 nM): − (less than 20% inhibition)
- FGFR1 kinase inhibition (FGFR1; 5 nM): + (from 20% to 40% inhibition)
- FGFR1 kinase inhibition (FGFR1; 50 nM): − (less than 20% inhibition)
- FGFR1 kinase inhibition (FGFR1; 1000 nM): − (less than 20% inhibition)
- CAMK4 kinase inhibition (CAMK4; 5 nM): − (less than 20% inhibition)
- CAMK4 kinase inhibition (CAMK4; 50 nM): − (less than 20% inhibition)
- CAMK4 kinase inhibition (CAMK4; 1000 nM): − (less than 20% inhibition)
- CK1a 1 kinase inhibition (CK1a 1; 5 nM): − (less than 20% inhibition)
- CK1a 1 kinase inhibition (CK1a 1; 50 nM): − (less than 20% inhibition)
- CK1a 1 kinase inhibition (CK1a 1; 1000 nM): − (less than 20% inhibition)
- P38A kinase inhibition (P38A; 5 nM): − (less than 20% inhibition)
- P38A kinase inhibition (P38A; 50 nM): − (less than 20% inhibition)
- P38A kinase inhibition (P38A; 1000 nM): − (less than 20% inhibition)
- CK2a 1 kinase inhibition (CK2a 1; 5 nM): − (less than 20% inhibition)
- CK2a 1 kinase inhibition (CK2a 1; 50 nM): − (less than 20% inhibition)
- CK2a 1 kinase inhibition (CK2a 1; 1000 nM): − (less than 20% inhibition)
- CDK2/CyclinE1 kinase inhibition (CDK2/CyclinE1; 5 nM): − (less than 20% inhibition)
- CDK2/CyclinE1 kinase inhibition (CDK2/CyclinE1; 50 nM): − (less than 20% inhibition)
- CDK2/CyclinE1 kinase inhibition (CDK2/CyclinE1; 1000 nM): − (less than 20% inhibition)
